Experimental data from patent US8779132B2, “Pharmaceutical compounds” (Astex Therapeutics Limited, priority 2006, dated 2014).
Structures can show the parent of a compound that is named as a salt.

Legend:
Plasma stability studies = format: in vitro ADME; conditions: mouse plasma, 37° C., approximately 1 hour
Protocol: The ease with which pro-drug compounds of the invention can be converted to the active moiety can be assessed by measuring the in vitro plasma stability of the compounds. The method is based on the ability of plasma enzymes to metabolise compounds to the active moiety. Compounds are added to plasma and incubated at 37° C. for approximately 1 hour. Aliquots of plasma are removed at timed intervals and the compound extracted by the addition of acetonitrile containing an internal standard. All extracts are then analysed for parent compound, the active moiety and the internal standard using a compound specific LCMS-MS assay. Stability is measured by comparison of the peak area ratio of the parent compound and internal standard at time zero with the peak area ratio of the parent compound and internal standard in the incubated samples. Generation of the active moiety in samples is also assessed.

HCT116 cell line = test: Anti-proliferative activity, Alamar Blue assay; format: cell-based; conditions: Homo sapiens, HCT-116, 72 h
Protocol: The anti-proliferative activities of compounds of the invention can be determined by measuring the ability of the compounds to inhibition of cell growth in a number of cell lines such as the human colon cancer cell line HCT116. […] The method is based on the ability of viable cells to reduce resazurin to its fluorescent product resorufin. […] The number of viable cells is determined by Alamar Blue assay as before. Cell lines can be obtained from the ECACC (European Collection of cell Cultures).

Row | Structure (SMILES) | generation of the active moiety (2,4-dihydroxy-5-isopropyl-phenyl)-[5-(4-methyl-piperazin-1-yl)-1,3-dihydro-isoindol-2-yl]-methanone (Plasma stability studies) | in vitro plasma stability (Plasma stability studies) | IC50 (HCT116 cell line) [µM]
1 | CC(C)c1cc(C(=O)N2Cc3ccc(N4CCN(C)CC4)cc3C2)c(OC(=O)C(C)(C)C)cc1OC(=O)C(C)(C)C [Example 85, 2,2-dimethyl-propionic acid 5-(2,2-dimethyl-propionyloxy)-4-isopropyl-2-[5-(4-methyl-piperazin-1-yl)-1,3-dihydro-isoindole-2-carbonyl]-phenyl ester] | formed the active moiety | range of stabilities | 
2 | CC(C)c1cc(C(=O)N2Cc3ccc(N4CCN(C)CC4)cc3C2)c(OC(=O)N(C)C)cc1OC(=O)N(C)C [Example 86, dimethyl-carbamic acid 5-dimethylcarbamoyloxy-2-isopropyl-4-[5-(4-methyl-piperazin-1-yl)-1,3-dihydro-isoindole-2-carbonyl]-phenyl ester] | formed the active moiety | range of stabilities | 
3 | CC(=O)Oc1cc(OC(C)=O)c(C(C)C)cc1C(=O)N1Cc2ccc(N3CCN(C)CC3)cc2C1 [Example 84, acetic acid 5-acetoxy-4-isopropyl-2-[5-(4-methyl-piperazin-1-yl)-1,3-dihydro-isoindole-2-carbonyl]-phenyl ester] | formed the active moiety | range of stabilities | 
4 | CC(C)c1cc(C(=O)N2Cc3ccc(C(=O)N4CCNCC4)cc3C2)c(O)cc1O [Example 54, (2,4-dihydroxy-5-isopropyl-phenyl)-[5-(piperazine-1-carbonyl)-1,3-dihydro-isoindol-2-yl]-methanone hydrochloride] |  |  | < 1
5 | CC(C)c1cc(C(=O)N2Cc3ccccc3C2)c(O)cc1O [Example 5, (1,3-Dihydro-isoindol-2-yl)-(2,4-dihydroxy-5-isopropyl-phenyl)-methanone] |  |  | < 1
